Experimental data from patent US6706663B2, “Herbicidal 3-heterocyclic substituted benzisothiazole and benzisoxazole compounds” (Wyeth, priority 2000, dated 2004).

Legend:
ORYSAT (Rice, Tebonnet) [1] = test: Flooded paddy, post-transplant rice tolerance; assay type: in vivo, Oryza sativa, (L.) Tebonnet; details: flooded paddy, post-transplant rice, rated 3-4 weeks after treatment, 0-9 rating scale
Summary of the method: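 Steps: transplant two ten-day-old seedlings into silt loam; flood to 1.5-3 cm above soil; apply herbicide post-transplant; maintain water on greenhouse benches; rate stand, vigor, malformation, size and chlorosis on a 0-9 visual scale versus control.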

[2] = system: GLXMAW (Soybean, Williams); test: Preemergence herbicidal evaluation; assay type: in vivo, Glycine max, (L.) Merr. cv Williams; details: preemergence, rated 4-5 weeks after treatment
[3] = system: ABUTH (Abutilon theophrasti); test: Postemergence herbicidal evaluation; assay type: in vivo, Medic.; details: postemergence
Summary of the method: (§1)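 Visual 0–9 injury scores versus control plants, covering stand, vigour, malformation, size, chlorosis and general appearance, taken four to five weeks post-spray and averaged over replicate tests. Plants were sprayed at roughly two weeks old and held on greenhouse benches.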

[4] = system: CHEAL (Chenopodium album); test: Preemergence herbicidal evaluation; assay type: in vivo, L.; details: preemergence, rated 4-5 weeks after treatment
Summary of the method: (§2)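 Steps: mix seeds with potting soil; plant on ~1 inch soil per cup; spray compound in aqueous acetone; hold on greenhouse benches with routine watering; rate 0–9 visually against control at 4–5 weeks.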

[5] = system: AMBEL (Ambrosia artemisifolia); test: Preemergence herbicidal evaluation; assay type: in vivo, L.; details: preemergence, rated 4-5 weeks after treatment
Summary of the method: as §2

[6] = system: CASOB (Cassia obtusifolia); test: Preemergence herbicidal evaluation; assay type: in vivo, L.; details: preemergence, rated 4-5 weeks after treatment
Summary of the method: as §2

ORYSAT (Rice, Tebonnet) [7] = test: Postemergence herbicidal evaluation; assay type: in vivo, Oryza sativa, (L.) Tebonnet; details: postemergence
Summary of the method: as §1

[8] = system: CHEAL (Chenopodium album); test: Postemergence herbicidal evaluation; assay type: in vivo, L.; details: postemergence
Summary of the method: as §1

[9] = system: AMBEL (Ambrosia artemisifolia); test: Postemergence herbicidal evaluation; assay type: in vivo, L.; details: postemergence
Summary of the method: as §1

[10] = system: CASOB (Cassia obtusifolia); test: Postemergence herbicidal evaluation; assay type: in vivo, L.; details: postemergence
Summary of the method: as §1

CYPIR (Cyperus iria) = test: Flooded paddy, preemergence weed control; assay type: in vivo; details: rated 3-4 weeks after treatment, 0-9 rating scale
Summary of the method: (§3)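 In this preemergence paddy assay, weed seeds or organs are sown at up to 0.5 cm in silt loam and covered by 1.5–3 cm of water for the full test period. After treatment the pots are kept in a greenhouse, and herbicidal effect is rated 0-9 visually against a control.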

SETVI (Setaria viridis) = test: Preemergence herbicidal evaluation; assay type: in vivo, (L.) Beau; details: preemergence, rated 4-5 weeks after treatment
Summary of the method: as §2

[11] = system: ECHCG (Echinochloa crus-galli); test: Preemergence herbicidal evaluation; assay type: in vivo, (L.) Beau; details: preemergence, rated 4-5 weeks after treatment
Summary of the method: as §2

[12] = system: GLXMAW (Soybean, Williams); test: Postemergence herbicidal evaluation; assay type: in vivo, Glycine max, (L.) Merr. cv Williams; details: postemergence
Summary of the method: as §1

[13] = system: ABUTH (Abutilon theophrasti); test: Preemergence herbicidal evaluation; assay type: in vivo, Medic.; details: preemergence, rated 4-5 weeks after treatment
[14] = system: MOOVA (Monochoria vaginalis); test: Flooded paddy, preemergence weed control; assay type: in vivo, Presl.; details: rated 3-4 weeks after treatment, 0-9 rating scale
Summary of the method: as §3

[15] = system: IPOHE (Ipomoea hederacea); test: Preemergence herbicidal evaluation; assay type: in vivo, (L.) Jacq.; details: preemergence, rated 4-5 weeks after treatment
ZEAMX (Corn, Field) = test: Preemergence herbicidal evaluation; assay type: in vivo, Zea mays, L.; details: preemergence, rated 4-5 weeks after treatment
[16] = system: IPOHE (Ipomoea hederacea); test: Postemergence herbicidal evaluation; assay type: in vivo, (L.) Jacq.; details: postemergence
Summary of the method: as §1

Cn1c(C(F)(F)F)cc(=O)n(-c2ccc3snc(C4OCC(CS(C)(=O)=O)O4)c3c2)c1=O (single isomer, unassigned) [Compound 87, 1-methyl-3-[3-[4-[(methylsulfonyl)methyl]-1,3-dioxolan-2-yl]-1,2-benzisothiazol-5-yl]-6-(trifluoromethyl)uracil]
8.5: GLXMAW herbicidal rating ([12]; rate 0.0620 kg/ha) | Preemergence herbicidal rating ZEAMX (ZEAMX (Corn, Field); rate 0.2500 kg/ha)
7.0: Preemergence herbicidal rating CASOB ([6]; rate 0.2500 kg/ha)
6.5: Preemergence herbicidal rating ECHCG ([11]; rate 0.1250 kg/ha)
8.0: Preemergence herbicidal rating SETVI (SETVI (Setaria viridis); rate 0.1250 kg/ha) | MOOVA herbicidal rating ([14]; rate 0.1250 kg/ha) | Preemergence herbicidal rating ZEAMX (ZEAMX (Corn, Field); rate 0.1250 kg/ha)
0.0: ORYSAT herbicidal rating (transplanted rice tolerance) (ORYSAT (Rice, Tebonnet) [1]; rate 0.0320 kg/ha) | CYPIR herbicidal rating (CYPIR (Cyperus iria); rate 0.0320 kg/ha) | MOOVA herbicidal rating ([14]; rate 0.0320 kg/ha)
3.0: ORYSAT herbicidal rating (transplanted rice tolerance) (ORYSAT (Rice, Tebonnet) [1]; rate 0.1250 kg/ha) | ORYSAT herbicidal rating (ORYSAT (Rice, Tebonnet) [7]; rate 0.0320 kg/ha)
9.0: Preemergence herbicidal rating GLXMAW ([2]; rate 0.0620 kg/ha) | Preemergence herbicidal rating GLXMAW ([2]; rate 0.1250 kg/ha) | Preemergence herbicidal rating GLXMAW ([2]; rate 0.2500 kg/ha) | ABUTH herbicidal rating ([3]; rate 0.0320 kg/ha) | ABUTH herbicidal rating ([3]; rate 0.0620 kg/ha) | Preemergence herbicidal rating CHEAL ([4]; rate 0.0620 kg/ha) | Preemergence herbicidal rating CHEAL ([4]; rate 0.1250 kg/ha) | Preemergence herbicidal rating CHEAL ([4]; rate 0.2500 kg/ha) | Preemergence herbicidal rating AMBEL ([5]; rate 0.0620 kg/ha) | Preemergence herbicidal rating AMBEL ([5]; rate 0.1250 kg/ha) | Preemergence herbicidal rating AMBEL ([5]; rate 0.2500 kg/ha) | Preemergence herbicidal rating CASOB ([6]; rate 0.1250 kg/ha) | CHEAL herbicidal rating ([8]; rate 0.0320 kg/ha) | CHEAL herbicidal rating ([8]; rate 0.0620 kg/ha) | AMBEL herbicidal rating ([9]; rate 0.0320 kg/ha) | AMBEL herbicidal rating ([9]; rate 0.0620 kg/ha) | CASOB herbicidal rating ([10]; rate 0.0320 kg/ha) | CASOB herbicidal rating ([10]; rate 0.0620 kg/ha) | Preemergence herbicidal rating SETVI (SETVI (Setaria viridis); rate 0.2500 kg/ha) | Preemergence herbicidal rating ECHCG ([11]; rate 0.2500 kg/ha) | GLXMAW herbicidal rating ([12]; rate 0.0320 kg/ha) | Preemergence herbicidal rating ABUTH ([13]; rate 0.0620 kg/ha) | Preemergence herbicidal rating ABUTH ([13]; rate 0.1250 kg/ha) | Preemergence herbicidal rating ABUTH ([13]; rate 0.2500 kg/ha) | Preemergence herbicidal rating IPOHE ([15]; rate 0.2500 kg/ha) | IPOHE herbicidal rating ([16]; rate 0.0320 kg/ha) | IPOHE herbicidal rating ([16]; rate 0.0620 kg/ha)
3.5: ORYSAT herbicidal rating (ORYSAT (Rice, Tebonnet) [7]; rate 0.0620 kg/ha)
6.0: Preemergence herbicidal rating CASOB ([6]; rate 0.0620 kg/ha) | Preemergence herbicidal rating SETVI (SETVI (Setaria viridis); rate 0.0620 kg/ha) | Preemergence herbicidal rating IPOHE ([15]; rate 0.1250 kg/ha)
5.0: CYPIR herbicidal rating (CYPIR (Cyperus iria); rate 0.1250 kg/ha) | Preemergence herbicidal rating IPOHE ([15]; rate 0.0620 kg/ha)
5.5: Preemergence herbicidal rating ECHCG ([11]; rate 0.0620 kg/ha) | Preemergence herbicidal rating ZEAMX (ZEAMX (Corn, Field); rate 0.0620 kg/ha)
